Measured values: patent US20200239587A1, “SENSITIZATION OF TUMORS TO THERAPIES THROUGH ENDOGLIN ANTAGONISM” (Cedars-Sinai Medical Center, priority 2016, published 2020)
“Also recorded” adds a separate entry of the source.

Columns and labels:
[1] = system: ID1 mRNA expression by Rv1 cells and mouse wild-type fibroblasts; assay: Species specificity of CD105 antagonists, BMP-induced ID1 mRNA; assay type: cell-based, human; details: 1 μg/ml; BMP 50 ng/mL, 6 hours
Experimental: All cells were pre-treated overnight in serum free media, then incubated with BMP (50 ng/mL) in the presence or absence of differing concentrations of concentrations of TRC105 or M1043 for 6 hours (mean+/−SD). Within each group, the left column depicts human PCa and right column depicts mouse fibroblasts.
Total RNA was extracted using the RNeasy kit (Qiagen). 1 μg RNA was used for cDNA synthesis using iSCRIPT cDNA synthesis kit (1708891, Bio-Rad). Quantitative RT-PCR was performed with 5 replicates using the Step One Real-Time PCR system (Applied Biosystems). Gene mRNA expression was normalized to GAPDH. Primer sequences can be found in the Table 1. For RNA-sequencing, Ion Proton AmpliSeq Transcriptome RNA Sequencing was performed achieving an average of 3M reads. We mapped an average of 88% of the reads to the human genome with Torrent Suite version 4.4.2.

[2] = system: tissue recombination orthotopic xenografts of primary human CAF and Rv1; assay: Tissue recombination orthotopic xenografts of primary human CAF and Rv1
From the text: FIG. 13A) Mice were orthotopically grafted with tissue recombinants of CW22Rv1 and CAF. […] FIG. 13B) H&E staining was followed by immune-localization for phosphorylated-histoneH3 (PH-H3), TUNEL, and chromogranin A (ChromA). Scale bar represents 32 μm. The mitotic (PH-H3) and cell death (TUNEL) indexes were plotted. n>5, error bars are mean+/−SD and *p<0.05, **p<0.01, ***p<0.001, compared to control unless otherwise indicated.
Male beige/SCID mice (Envigo), 6-8 or 10-12 weeks old, were used for subrenal capsule or prostatic orthotopic grafting, respectively, as previously described (Banerjee et al., 2014, Oncogene 33, 4924-4931; Hayward et al., 2001, Cancer Res 61, 8135-8142). In accordance with institutional animal care and use committee approval, 2×10^5 CW22Rv1 cells and 6×10^5 stromal cells were suspended in 20 μL type I collagen to be grafted into the subrenal capsule of mice castrated after seven days and sacrificed 21 days after castration. […] Tumor volume was calculated using the modified ellipsoid formula volume3=π/6×(width)2×length.
Paraffin embedded tissues were sectioned (5 μm thick) were subjected to hematoxylin and eosin (H&E) staining and immunohistochemistry as previously reported (Placencio et al., 2008, Cancer research 68, 4709-4718). […] Anti-phosphorylated histone H3 (06-570, Millipore), anti-CD105 (NCL-CD105, Leica Microsystems), anti-Ki67 (ab16667, Abcam), and anti-chromogranin A (sc-13090, Santa Cruz Biotechnology), anti-SFRP1 (601-401-475S, Rockland Immunochemicals), and anti-survivin (2808, Cell Signaling) antibodies were incubated at 4° C. overnight. Secondary antibody development was performed with Dako Cytomation mouse or rabbit kits and visualized using 3,3′-diaminobenzidine tetrahydrochloride substrate. TUNEL staining was performed per manufacturer's protocol (S7100, Millipore). Slides were scanned with a Leica Biosystems Aperio AT. Up to five fields per tissue were quantitated with Fiji (ImageJ) using a custom written macro. Mitotic and death index were quantitated by taking the total number of positively-stained nuclei divided by the total number of nuclei.

[3] = system: CW22Rv1 cells; assay: Cell cycle analysis after irradiation; assay type: cell-based, human
Experimental: Within each group, the left column depicts G1, middle column depicts S and the right column depicts G2. […] All studies shown are 5 days after irradiation and/or 5 days of treatment with TRC105.
22Rv1 were pre-treated with 1 μg/ml TRC105 24 hours prior to irradiation with 4 Gy. FIG. 22A) γ-H2AX or p53 bp were imunolocalized at 4, 24, and 48 hours post radiation. Foci per nuclei were quantified (n=100). FIG. 22B) Comet assay was performed 30 minutes and 24 hours following irradiation. The tail moment was quantified (n=50). FIG. 22C) Cell cycle analysis was performed on 22Rv1 at 0, 4, 8, and 24 hours post radiation in the presence of IgG or TRC105 (n=3) in 3 independent experiments. (***p<0.001, ****p<0.0001).

[4] = system: androgen receptor variants and RNPC1; assay: Androgen receptor variants and RNPC1 expression; assay type: cell-based
[5] = system: CW22Rv1 cells; assay: Seahorse-XF mito-stress test; assay type: cell-based, human
Experimental: Cells were analyzed for mito-stress test by Seahorse-XF 168 hours following 4 Gy of radiation in the presence of IgG or TRC105. FIG. 26A) Basal respiration, non-mito respiration, proton leak, spare respiratory capacity, FIG. 26B) extracellular acidification rate (ECAR) and FIG. 26C) mitochondrial dependent ATP production were quantitated using Wave 2.3.0 analysis. Data are reported as mean+/−S.D. of a representative experiment (n=5) of 3 independent experiments. FIGS. 26A-26C, the first/left column depicts 0Gy+IgG, the second column depicts 0Gy+TRC105, the third column depicts 4Gy+IgG and the last/right column depicts 4Gy+TRC105. FIG. 26D) 22Rv1 cells treated with IgG, TRC105 or nicotinamide were irradiated (4 Gy). Total cellular ATP was measured 0, 24, 72, 120, and 168 hours post radiation. Within each group, the left column is IgG, middle column is TRC105 and the right column is nicotinamide. Data are reported as mean+/−S.D. of 3 independent experiments. (***p<0.001, ****p<0.0001).

[6] = system: 22Rv1 cells; assay: Annexin-V apoptosis by FACS after irradiation; assay type: cell-based, human; details: TRC105 with 4 Gy radiation vs radiation alone, 5 days
Experimental: FIG. 18A) Cell surface CD105 expression was measured in PC3, C42b, and 22Rv1 72 hours after 4 Gy irradiation treatment by FACS analysis and compared to cells not irradiated (control). FIG. 18B) Cell surface CD105 expression was measured in cell lines following a dose range of irradiation (0, 2, 4, or 6 Gy). FIG. 18C) The durability of cell surface CD105 expression in 22Rv1 was determined 0, 0.5, 4, 8, 24, 48, 72, 120, and 168 hours following 4 Gy irradiation. CD105 cell surface expression fold change was normalized to levels expressed prior to irradiation. FIG. 18D) Western blot for phosphorylated-Smad1/5 was measured in CW22Rv1 cells in the presence or absence of serum starvation and treatment with 50 ng/ml BMP4 or 1 μg/ml TRC105. β-actin expression served as the loading control. FIG. 18E) Annexin-V expression was measured in 22Rv1 cells by FACS analysis 5 days following 4 Gy irradiation in the presence and absence of TRC105. FIG. 18F) Clonogenic assay was measured 10 days following irradiation of CW22Rv1 and C42b cells in a dose range of 0 to 6 Gy in the presence of 1 μg/ml IgG or TRC105. Data are reported as a mean+/−S.D. (**p<0.01, ***p<0.001).

[7] = system: C42B; assay: MTT proliferation assay; assay type: cell-based, human; details: TRC105 plus enzalutamide
Experimental: (§1) CW22Rv1, C42B, and PC3 cells from ATCC were expanded as directed. Prostatectomy specimens from Cedars-Sinai Medical Center or the Greater Los Angeles Veterans Affairs were cultured to generate NAF and CAF cells using the same method, as C57BL/6 mouse wild-type prostatic fibroblasts were grown as previously reported (Franco et al., 2011, Cancer research 71, 1272-1281; Kiskowski et al., 2011, Cancer research 68, 4709-4718). TRC105 and M1043 were provided by TRACON Pharmaceuticals, Inc. (San Diego, Calif.). Enzalutamide (Xtandi) was purchased from Medivation (San Francisco, Calif.).
(§2) 3000 cells per 96-well were treated for 72 hours using 5 wells per treatment. MTT reagent (M6494, Life Technologies) was prepared as directed, incubated for one hour at 37° C., and analyzed using manufacturer's recommendations.

[8] = system: Rv1; assay: MTT proliferation assay; assay type: cell-based, human; details: TRC105 plus enzalutamide
Experimental: as §1, §2

[9] = system: PC3 cells; assay: MTT proliferation assay; assay type: cell-based, human; details: enzalutamide in the presence of TRC105
Experimental: as §1, §2

TRC105: partially humanized monoclonal antibody that blocks BMP signaling; human-specific CD105 (endoglin) neutralizing antibody from Tracon Pharmaceuticals
cross-species reactivity [1]: no cross-species reactivity | NED, chromogranin A staining ([2]; TRC105 added to ATT): reduced | proliferation or cell death ([2]; TRC105 alone compared to control): little change in either proliferation or cell death | tumor size ([2]; TRC105 alone, p<0.05): smaller than vehicle | tumor volume ([2]; TRC105 in enzalutamide treated castrated mice vs vehicle or enzalutamide (p<0.01 and <0.05)): significant reduction in tumor volume | tumor size ([2]; TRC105 treatment in castrated mice): reduced tumor size | proliferation (phosphorylated-histone H3) ([2]; castration, enzalutamide and TRC105 vs control or castrated enzalutamide group (p<0.05 and <0.001)): substantially reduced proliferation | TUNEL staining ([2]; castration, enzalutamide and TRC105 vs control or enzalutamide (p<0.05)): increased TUNEL staining | efficacy of combination of TRC105 with ADT ([2]; prostate cancer models, in vivo): superior to either one alone | cell cycle distribution ([3]; 4 Gy plus TRC105, 0-24 hours): G2 cell cycle arrest that did not resolve by 24 hours | cell cycle, G2-phase ([3]; radiation combined with TRC105, 5 days): chronic up regulation of the G2-phase | RNPC1 (RBM38) expression ([4]; TRC105): down regulated | androgen receptor variants expression ([4]; TRC105): down regulated; also recorded: down-regulated | Notch and IL-6 mediated ARv expression ([4]; antagonizing endoglin): down regulate Notch and IL-6 mediated ARv expression | mitochondrial dependent ATP production ([5]; TRC105 alone): depletion of mitochondrial dependent ATP production | spare respiratory capacity ([5]; TRC105 plus 4 Gy vs radiation alone): further decrease in spare respiratory capacity | basal oxidative phosphorylation ([5]; TRC105 plus 4 Gy vs radiation alone, 168 hours): decrease in basal oxidative phosphorylation | glycolysis (extracellular acidification) ([5]; addition of TRC105 in the context of radiation): blocked glycolysis | mitochondrial dependent ATP production ([5]; combination of radiation and TRC105 vs either agent alone): further depletion | apoptosis measured by Annexin-V [6]: significantly increased apoptosis | cell proliferation (MTT), addition of TRC105 to enzalutamide [7]: no additional impact | cell proliferation (MTT), addition of TRC105 to enzalutamide [8]: no additional impact | viability (MTT) [9]: insensitive
